Laboratory results taken from patent US20250002464A1, “NOVEL COMPOUND AND PHARMACEUTICAL COMPOSITION COMPRISING SAME” (SAPIENSBIO INC., priority 2021, published 2025).

tested on: α-SMA; assay: α-SMA expression inhibitory ability in MRC5 cell line (Western blotting); format: cell-based; conditions: TGF-β1 (10 ng/mL), 72 hours, relative to TGF-β1 only
Description: Subsequently, the inhibitory effect on pulmonary fibrosis of the compounds according to the present invention was overall evaluated. An MRC5 cell line was treated with each compound at 10 μM, and 2 hours later, treated with TGF-β1 (10 ng/mL). After 72 hours, the cells were lysed using RIPA Buffer, and then an α-SMA protein level was measured through Western blotting. The α-SMA expression level when treating the cells with each compound and TGF-β1 compared to the α-SMA expression level when treating the cells only with TGF-β1 without the compound was calculated as the α-SMA expression inhibitory ability of the corresponding compound. The α-SMA expression inhibitory ability of each compound is summarized in Table 2 below (A: inhibitory ability≥70%, B: 50%: inhibitory ability<70%, C: inhibitory ability<50%).

SMILES	inhibition at 10 µM [%]
CC1CCCN1CCC(=O)N1CCN(c2ccc(F)cc2)c2cc(F)ccc21 (stereo in doubt) [Compound 40, (R)-1-(6-fluoro-4-(4-fluorophenyl)-3,4-dihydroquinoxaline-1(2H)-yl)-3-(2-methylpyrrolidin-1-yl)propan-1-one]	< 50
CN1CCN(CCC(=O)N2CCN(Cc3ccccc3)c3ccccc32)CC1 [Compound 80, 1-(4-benzyl-3,4-dihydroquinoxaline-1(2H)-yl)-3-(4-methylpiperazin-1-yl)propan-1-one]	50 to 70
CC(C(=O)N1CCN(c2ccccc2Cl)c2ccccc21)N1CCCCC1 (centres unmarked) [Compound 129, 1-(4-(2-chlorophenyl)-3,4-dihydroquinoxaline-1(2H)-yl)-2-(piperidin-1-yl)propan-1-one]	≥ 70
O=C(CN1CCCCC1)N1CCN(Cc2ccccc2)c2ccccc21 [Compound 85, 1-(4-benzyl-3,4-dihydroquinoxaline-1(2H)-yl)-2-(piperidin-1-yl)ethan-1-one]	< 50
O=C(CCN1CCNCC1)N1CCN(c2ccc(F)cc2)c2ccccc21 [Compound 28, 1-(4-(4-fluorophenyl)-3,4-dihydroquinoxaline-1(2H)-yl)-3-(piperazin-1-yl)propan-1-one]	≥ 70
O=C(CN1CCCC1)N1CCN(C(=O)c2ccccc2)c2ccccc21 [Compound 202, 1-(4-benzoyl-3,4-dihydroquinoxaline-1(2H)-yl)-2-(pyrrolidin-1-yl)ethan-1-one]	< 50
O=C(CCN1CCN2CCCC2C1)N1CCN(c2ccc(F)cc2)c2cc(F)ccc21 (centres unmarked) [Compound 42, 1-(6-fluoro-4-(4-fluorophenyl)-3,4-dihydroquinoxaline-1(2H)-yl)-3-(hexahydropyrrolo[1,2-a]pyrazin-2(1H)-yl)propan-1-one]	< 50
O=C(CCN1CCCC1)N1CCN(c2ccccc2Cl)c2ccccc21 [Compound 125, 1-(4-(2-chlorophenyl)-3,4-dihydroquinoxaline-1(2H)-yl)-3-(pyrrolidin-1-yl)propan-1-one]	50 to 70
CC(C(=O)N1CCN(c2ccccc2)c2cc(F)ccc21)N1CCCC1 (centres unmarked) [Compound 10, 1-(6-fluoro-4-phenyl-3,4-dihydroquinoxaline-1(2H)-yl)-2-(pyrrolidin-1-yl)propan-1-one]	< 50
CN1CCN(CCC(=O)N2CCN(c3ccccc3)c3cc(F)ccc32)CC1 [Compound 4, 1-(6-fluoro-4-phenyl-3,4-dihydroquinoxaline-1(2H)-yl)-3-(4-methylpiperazin-1-yl)propan-1-one]	50 to 70
CC(C)CN1CCN(C(=O)C(C)N2CCN(C)CC2)c2ccccc21 (centres unmarked) [Compound 173, 1-(4-isobutyl-3,4-dihydroquinoxaline-1(2H)-yl)-2-(4-methylpiperazin-1-yl)propan-1-one]	50 to 70
O=C(CN1CCCCC1)N1CCN(C2CCCCC2)c2ccccc21 [Compound 194, 1-(4-cyclohexyl-3,4-dihydroquinoxaline-1(2H)-yl)-2-(piperidin-1-yl)ethan-1-one]	< 50
N[C@H](Cc1c[nH]cn1)C(=O)N1CCN(c2ccc(F)cc2)c2cc(F)ccc21 [Compound 48, (R)-2-amino-1-(6-fluoro-4-(4-fluorophenyl)-3,4-dihydroquinoxaline-1(2H)-yl)-3-(1H-imidazol-4-yl)propan-1-one]	< 50
O=C(CN1CCCCC1)N1CCN(Cc2cccc(Cl)c2)c2ccccc21 [Compound 103, 1-(4-(3-chlorobenzyl)-3,4-dihydroquinoxaline-1(2H)-yl)-2-(piperidin-1-yl)ethan-1-one]	50 to 70
O=C(CCN1CC[C@H](O)C1)N1CCN(c2ccc(F)cc2)c2cc(F)ccc21 [Compound 44, (S)-1-(6-fluoro-4-(4-fluorophenyl)-3,4-dihydroquinoxaline-1(2H)-yl)-3-(3-hydroxypyrrolidin-1-yl)propan-1-one]	≥ 70
CC(C(=O)N1CCN(Cc2ccccc2)c2ccccc21)N1CCN(C)CC1 (centres unmarked) [Compound 83, 1-(4-benzyl-3,4-dihydroquinoxaline-1(2H)-yl)-2-(4-methylpiperazin-1-yl)propan-1-one]	50 to 70
CN1CCN(CC(=O)N2CCN(c3ccccc3Cl)c3ccccc32)CC1 [Compound 133, 1-(4-(2-chlorophenyl)-3,4-dihydroquinoxaline-1(2H)-yl)-2-(4-methylpiperazin-1-yl)ethan-1-one]	50 to 70
O=C(CCN1CCCC1)N1CCN(c2ccccn2)c2ccccc21 [Compound 146]	< 50
CC(C(=O)N1CCN(c2ccccc2)c2ccccc21)N1CCCC1 (centres unmarked) [Compound 61, 1-(4-phenyl-3,4-dihydroquinoxaline-1(2H)-yl)-2-(pyrrolidin-1-yl)propan-1-one]	< 50
O=C(CCN1CCCCC1)N1CCN(c2ccc(F)cc2)c2ccccc21 [Compound 16, 1-(4-(4-fluorophenyl)-3,4-dihydroquinoxaline-1(2H)-yl)-3-(piperidin-1-yl)propan-1-one]	≥ 70
CN1CCN(CC(=O)N2CCN(C(=O)c3ccccc3)c3ccccc32)CC1 [Compound 204, 1-(4-benzoyl-3,4-dihydroquinoxaline-1(2H)-yl)-2-(4-methylpiperazin-1-yl)ethan-1-one]	< 50
CC(C(=O)N1CCN(c2ccc(F)cc2)c2cc(F)ccc21)N1CCCC[C@H]1C (stereo partly drawn) [Compound 49, 1-(6-fluoro-4-(4-fluorophenyl)-3,4-dihydroquinoxaline-1(2H)-yl)-2-((R)-2-methylpiperidin-1-yl)propan-1-one]	< 50
CC(C(=O)N1CCN(C2CCCCC2)c2ccccc21)N1CCCCC1 (centres unmarked) [Compound 191, 1-(4-cyclohexyl-3,4-dihydroquinoxaline-1(2H)-yl)-2-(piperidin-1-yl)propan-1-one]	50 to 70
CC(C(=O)N1CCN(c2ccccc2)c2cc(F)ccc21)N1CCCC[C@H]1C (stereo partly drawn) [Compound 8, 1-(6-fluoro-4-phenyl-3,4-dihydroquinoxaline-1(2H)-yl)-2-((R)-2-methylpiperidin-1-yl)propan-1-one]	< 50
CC(C(=O)N1CCN(c2ccccc2)c2ccccc21)N1CCN2CCCC2C1 (centres unmarked) [Compound 64, 2-(hexahydropyrrolo[1,2-a]pyrazin-2(1H)-yl)-1-(4-phenyl-3,4-dihydroquinoxaline-1(2H)-yl)propan-1-one]	< 50
CN1CCN(CCC(=O)N2CCN(CC3CC3)c3ccccc32)CC1 [Compound 163, 1-(4-(cyclopropylmethyl)-3,4-dihydroquinoxaline-1(2H)-yl)-3-(4-methylpiperazin-1-yl)propan-1-one]	< 50
O=C(CN1CCN(c2ccccc2)c2ccccc21)N1CCCC(O)C1 (centres unmarked) [Compound 77, 1-(3-hydroxypiperidin-1-yl)-2-(4-phenyl-3,4-dihydroquinoxaline-1(2H)-yl)ethan-1-one]	< 50
CN1CCN(C(=O)CN2CCN(c3ccccc3)c3ccccc32)CC1 [Compound 73, 1-(4-methylpiperazin-1-yl)-2-(4-phenyl-3,4-dihydroquinoxaline-1(2H)-yl)ethan-1-one]	50 to 70
CC(C(=O)N1CCN(Cc2cccc(Cl)c2)c2ccccc21)N1CCCCC1 (centres unmarked) [Compound 100, 1-(4-(3-chlorobenzyl)-3,4-dihydroquinoxaline-1(2H)-yl)-2-(piperidin-1-yl)propan-1-one]	≥ 70
